In patent US20230077362A1 (CORTEVA AGRISCIENCE LLC, priority 2019, published 2023):

Key:
[1] = test system: Beet Armyworm (Spodoptera exigua) ("BAW"), second instar larvae; assay: Bioassay on beet armyworm (BAW), 128-well diet tray assay; assay type: in vivo; details: Spodoptera exigua, read-out: BAW (Biological Results, rating)
In short: (§1)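 Covered trays were held at 25° C. under a 14:10 light-dark cycle for five to seven days. Percent mortality was then scored in each well, and activity across eight wells was averaged.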

[2] = test system: Cabbage Looper (Trichoplusia ni) ("CL"), second instar larvae; assay: Bioassay on cabbage looper (CL), 128-well diet tray assay; assay type: in vivo; details: Trichoplusia ni, read-out: CL (Biological Results, rating)
In short: as §1

SMILES	pest or weed control at 50 µg/cm2 [1]	pest or weed control at 50 µg/cm2 [2]
O=C(/N=C1\SCC(=O)N1c1cc(Cl)ccc1C(F)(F)F)Nc1ccc(-c2ncn(-c3ccc(OC(F)(F)F)cc3)n2)cc1Cl [Compound J42, (Z)-1-(3-(5-Chloro-2-(trifluoromethyl)phenyl)-4-oxothiazolidin-2-ylidene)-3-(2-chloro-4-(1-(4-(trifluoromethoxy)phenyl)-1H-1,2,4-triazol-3-yl)phenyl)urea]	50 to 100%	50 to 100%
CCCc1ccc(OC)cc1N1C(=O)CS/C1=N\C(=O)Nc1ccc(-c2ncn(-c3ccc(OC(F)(F)F)cc3)n2)cc1F [Compound J43, (Z)-1-(2-Fluoro-4-(1-(4-(trifluoromethoxy)phenyl)-1H-1,2,4-triazol-3-yl)phenyl)-3-(3-(5-methoxy-2-propylphenyl)-4-oxothiazolidin-2-ylidene)urea]	50 to 100%	50 to 100%
CCCCc1ccc(C)cc1N1C(=O)CS/C1=N\C(=O)Nc1ccc(-c2ncn(-c3ccc(OC(F)(F)F)cc3)n2)cc1F [Compound J44, (Z)-1-(3-(2-Butyl-5-methylphenyl)-4-oxothiazolidin-2-ylidene)-3-(2-fluoro-4-(1-(4-(trifluoromethoxy)phenyl)-1H-1,2,4-triazol-3-yl)phenyl)urea]	50 to 100%	50 to 100%
CCCCc1ccc(OC)cc1N1C(=O)CS/C1=N\C(=O)Nc1ccc(-c2ncn(-c3ccc(OC(F)(F)F)cc3)n2)cc1F [Compound J45, (Z)-1-(3-(2-Butyl-5-methoxyphenyl)-4-oxothiazolidin-2-ylidene)-3-(2-fluoro-4-(1-(4-(trifluoromethoxy)phenyl)-1H-1,2,4-triazol-3-yl)phenyl)urea]	50 to 100%	50 to 100%
CC(C)c1ccc(Cl)cc1N1C(=O)CS/C1=N\C(=O)Nc1ccc(-c2ncn(-c3ccc(OC(F)(F)F)cc3)n2)cc1F [Compound J46, (Z)-1-(3-(5-Chloro-2-isopropylphenyl)-4-oxothiazolidin-2-ylidene)-3-(2-fluoro-4-(1-(4-(trifluoromethoxy)phenyl)-1H-1,2,4-triazol-3-yl)phenyl)urea]	50 to 100%	50 to 100%
Cc1ccc(CC(C)C)c(N2C(=O)CS/C2=N\C(=O)Nc2ccc(-c3ncn(-c4ccc(OC(F)(F)F)cc4)n3)cc2F)c1 [Compound J47, (Z)-1-(2-Fluoro-4-(1-(4-(trifluoromethoxy)phenyl)-1H-1,2,4-triazol-3-yl)phenyl)-3-(3-(2-isobutyl-5-methylphenyl)-4-oxothiazolidin-2-ylidene)urea]	50 to 100%	50 to 100%
CCC(C)c1ccc(OC)cc1N1C(=O)CS/C1=N\C(=O)Nc1ccc(-c2ncn(-c3ccc(OC(F)(F)F)cc3)n2)cc1F (centres unmarked) [Compound J48, (Z)-1-(3-(2-(sec-Butyl)-5-methoxyphenyl)-4-oxothiazolidin-2-ylidene)-3-(2-fluoro-4-(1-(4-(trifluoromethoxy)phenyl)-1H-1,2,4-triazol-3-yl)phenyl)urea]	50 to 100%	50 to 100%
COC(C)c1ccc(C)cc1N1C(=O)CS/C1=N\C(=O)Nc1ccc(-c2ncn(-c3ccc(OC(F)(F)F)cc3)n2)cc1F (centres unmarked) [Compound J49, (Z)-1-(2-Fluoro-4-(1-(4-(trifluoromethoxy)phenyl)-1H-1,2,4-triazol-3-yl)phenyl)-3-(3-(2-(1-methoxyethyl)-5-methylphenyl)-4-oxothiazolidin-2-ylidene)urea]	50 to 100%	50 to 100%
O=C(/N=C1\SCC(=O)N1c1cc(C(F)(F)F)ccc1C(F)(F)F)Nc1ccc(-c2ncn(-c3ccc(OC(F)(F)F)cc3)n2)cc1F [Compound J50, (Z)-1-(3-(2,5-Bis(trifluoromethyl)phenyl)-4-oxothiazolidin-2-ylidene)-3-(2-fluoro-4-(1-(4-(trifluoromethoxy)phenyl)-1H-1,2,4-triazol-3-yl)phenyl)urea]	50 to 100%	50 to 100%
CCC(C)Oc1ccc(C)cc1N1C(=O)CS/C1=N\C(=O)Nc1ccc(-c2ncn(-c3ccc(OC(F)(F)F)cc3)n2)cc1F (centres unmarked) [Compound J51, (Z)-1-(3-(2-(sec-Butoxy)-5-methylphenyl)-4-oxothiazolidin-2-ylidene)-3-(2-fluoro-4-(1-(4-(trifluoromethoxy)phenyl)-1H-1,2,4-triazol-3-yl)phenyl)urea]	50 to 100%	50 to 100%
CCCc1ccc(C)cc1N1C(=O)CS/C1=N\C(=O)Nc1ccc(-c2ncn(-c3ccc(OC(F)(F)F)cc3)n2)cc1C [Compound J53, (Z)-1-(3-(5-Methyl-2-propylphenyl)-4-oxothiazolidin-2-ylidene)-3-(2-methyl-4-(1-(4-(trifluoromethoxy)phenyl)-1H-1,2,4-triazol-3-yl)phenyl)urea]	50 to 100%	50 to 100%
COc1ccc(C(C)C)c(N2C(=O)CS/C2=N\C(=O)Nc2ccc(-c3ncn(-c4ccc(OC(F)(F)F)cc4)n3)cc2C)c1 [Compound J54, (Z)-1-(3-(2-Isopropyl-5-methoxyphenyl)-4-oxothiazolidin-2-ylidene)-3-(2-methyl-4-(1-(4-(trifluoromethoxy)phenyl)-1H-1,2,4-triazol-3-yl)phenyl)urea]	50 to 100%	50 to 100%
Cc1ccc(OCC(F)(F)F)c(N2C(=O)CS/C2=N\C(=O)Nc2ccc(-c3ncn(-c4ccc(OC(F)(F)F)cc4)n3)cc2C)c1 [Compound J55, (Z)-1-(3-(5-Methyl-2-(2,2,2-trifluoroethoxy)phenyl)-4-oxothiazolidin-2-ylidene)-3-(2-methyl-4-(1-(4-(trifluoromethoxy)phenyl)-1H-1,2,4-triazol-3-yl)phenyl)urea]	50 to 100%	50 to 100%
Cc1ccc(OCCC(F)(F)F)c(N2C(=O)CS/C2=N\C(=O)Nc2ccc(-c3ncn(-c4ccc(OC(F)(F)F)cc4)n3)cc2C)c1 [Compound J56, (Z)-1-(3-(5-Methyl-2-(3,3,3-trifluoropropoxy)phenyl)-4-oxothiazolidin-2-ylidene)-3-(2-methyl-4-(1-(4-(trifluoromethoxy)phenyl)-1H-1,2,4-triazol-3-yl)phenyl)urea]	50 to 100%	50 to 100%
Cc1ccc(C(C)C)c(N2C(=O)CS/C2=N\C(=O)Nc2ccc(-c3ncn(-c4ccc(OCC(F)(F)F)cc4)n3)cc2F)c1 [Compound J57, (Z)-1-(2-Fluoro-4-(1-(4-(2,2,2-trifluoroethoxy)phenyl)-1H-1,2,4-triazol-3-yl)phenyl)-3-(3-(2-isopropyl-5-methylphenyl)-4-oxothiazolidin-2-ylidene)urea]	50 to 100%	50 to 100%
COc1ccc(C(C)C)c(N2C(=O)CS/C2=N\C(=O)Nc2ccc(-c3ncn(-c4ccc(OCC(F)(F)F)cc4)n3)cc2F)c1 [Compound J58, (Z)-1-(2-Fluoro-4-(1-(4-(2,2,2-trifluoroethoxy)phenyl)-1H-1,2,4-triazol-3-yl)phenyl)-3-(3-(2-isopropyl-5-methoxyphenyl)-4-oxothiazolidin-2-ylidene)urea]	50 to 100%	50 to 100%
CCOc1ccc(C)cc1N1C(=O)CS/C1=N\C(=O)Nc1ccc(-c2ncn(-c3ccc(OC(F)(F)F)cc3)n2)cc1F [Compound J59, (Z)-1-(3-(2-Ethoxy-5-methylphenyl)-4-oxothiazolidin-2-ylidene)-3-(2-fluoro-4-(1-(4-(trifluoromethoxy)phenyl)-1H-1,2,4-triazol-3-yl)phenyl)urea]	50 to 100%	50 to 100%
COC(C)c1ccc(C)cc1N1C(=O)CS/C1=N\C(=O)Nc1ccc(-c2ncn(-c3ccc(OC(F)(F)F)cc3)n2)cc1C (centres unmarked) [Compound J60, (Z)-1-(3-(2-(1-Methoxyethyl)-5-methylphenyl)-4-oxothiazolidin-2-ylidene)-3-(2-methyl-4-(1-(4-(trifluoromethoxy)phenyl)-1H-1,2,4-triazol-3-yl)phenyl)urea]	50 to 100%	50 to 100%
Cc1ccc(C(C)C)c(N2C(=O)CS/C2=N\C(=O)Nc2ccc(-c3ncn(-c4ccc(C(F)(F)F)cc4)n3)cc2F)c1 [Compound J61, (Z)-1-(2-Fluoro-4-(1-(4-(trifluoromethyl)phenyl)-1H-1,2,4-triazol-3-yl)phenyl)-3-(3-(2-isopropyl-5-methylphenyl)-4-oxothiazolidin-2-ylidene)urea]	50 to 100%	50 to 100%
COC(C)c1ccc(C)cc1N1C(=O)CS/C1=N\C(=O)Nc1ccc(-c2ncn(-c3ccc(C(F)(F)F)cc3)n2)cc1F (centres unmarked) [Compound J62, (Z)-1-(2-Fluoro-4-(1-(4-(trifluoromethyl)phenyl)-1H-1,2,4-triazol-3-yl)phenyl)-3-(3-(2-(1-methoxyethyl)-5-methylphenyl)-4-oxothiazolidin-2-ylidene)urea]	50 to 100%	50 to 100%
Cc1ccc(OCC(F)(F)F)c(N2C(=O)CS/C2=N\C(=O)Nc2ccc(-c3ncn(-c4ccc(C(F)(F)F)cc4)n3)cc2F)c1 [Compound J63, (Z)-1-(2-Fluoro-4-(1-(4-(trifluoromethyl)phenyl)-1H-1,2,4-triazol-3-yl)phenyl)-3-(3-(5-methyl-2-(2,2,2-trifluoroethoxy)phenyl)-4-oxothiazolidin-2-ylidene)urea]	50 to 100%	50 to 100%
Cc1ccc(OCCC(F)(F)F)c(N2C(=O)CS/C2=N\C(=O)Nc2ccc(-c3ncn(-c4ccc(C(F)(F)F)cc4)n3)cc2F)c1 [Compound J64, (Z)-1-(2-Fluoro-4-(1-(4-(trifluoromethyl)phenyl)-1H-1,2,4-triazol-3-yl)phenyl)-3-(3-(5-methyl-2-(3,3,3-trifluoropropoxy)phenyl)-4-oxothiazolidin-2-ylidene)urea]	50 to 100%	50 to 100%
